Where a name gives a salt, the structure may show the parent alone.

Assay [1] concerns the target T1, recombinant human B1 receptors (Homo sapiens, UniProt P46663).
T1 construct: host or cells: CHO (CHO-B1)
T1 sequence (P46663 1-353): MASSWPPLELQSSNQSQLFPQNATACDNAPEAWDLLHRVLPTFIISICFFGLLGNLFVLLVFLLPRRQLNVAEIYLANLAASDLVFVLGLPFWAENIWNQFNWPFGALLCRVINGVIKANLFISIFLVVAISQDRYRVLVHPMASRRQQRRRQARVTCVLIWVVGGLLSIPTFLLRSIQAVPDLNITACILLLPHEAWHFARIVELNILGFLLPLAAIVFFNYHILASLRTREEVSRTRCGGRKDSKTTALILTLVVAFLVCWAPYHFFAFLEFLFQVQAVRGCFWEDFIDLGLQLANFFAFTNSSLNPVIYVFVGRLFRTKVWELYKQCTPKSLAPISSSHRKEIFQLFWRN
The assay is described as follows: Antagonist potency by measurement of cytosolic calcium ion concentration in CHO-B1 cells (agonist LysDABK). The format is cell-based. As to conditions: inhibition of LysDABK (EC80)-evoked [Ca2+]i elevation, fluo-4, read-out: B1 func. How it is done: Assessment of Antagonist Potency at B1 and B2 Receptors In Vitro by Measurement of Cytosolic Calcium Ion Concentration with a Plate Reader Fluorimeter in Cells Expressing Recombinant Human B1 or B2 Receptors
Chinese hamster ovary (CHO) cells stably expressing recombinant human B1 (CHO-B1, Euroscreen) or B2 (CHO-B2, Perkin-Elmer) receptors were cultured in Dulbecco's Modified Eagle's Medium (DMEM) containing 10% Fetal Calf Serum (FCS), 100 U/ml penicillin, 0.1 mg/ml streptomycin, 0.25 μg/ml amphotericin B, 1% Minimum Essential Medium Eagle (MEM), non essential amino acid solution, 600 μg/ml G418, 1% pyruvate (for the B2 cell line). Cells were kept at 37° C. in a humidified incubator in an atmosphere of 5% CO2/95% air and were passaged 1:4 three times a week. Cells were plated at 1.5-2.5×10^4 cell/well on standard 96-well microplates, measurements of cytosolic calcium ion concentration ([Ca^2+]i) were carried out 1-2 days after cell plating.
Measurements of [Ca^2+]i were carried out on CHO-B1 and CHO-B2 cells stably expressing human B1 and B2 receptors, respectively. Cells were grown in standard 96-well microplates and before the measurement were loaded with a fluorescent Ca^2+-sensitive dye, fluo-4/AM (2 μM): after removing the culture medium the dye was added to the cells (dissolved in assay buffer: 145 mM NaCl, 5 mM KCl, 2 mM MgCl2, 2 mM CaCl2, 10 mM HEPES, 20 mM D-glucose, 2 mM probenecid, 100 μl/well) and cells were incubated at 37° C. in a humidified incubator in an atmosphere of 5% CO2/95% air for 40-120 min. To stop dye loading cells were washed twice with assay buffer. After washing, various concentrations of the test compounds (diluted in extracellular medium from a DMSO stock solution, final DMSO concentration was <0.1%) or buffer were added to each well depending on the experimental setup. After incubation at 37° C. for 20-25 min. baseline and agonist-evoked changes of [Ca^2+]i were measured column by column with a plate reader fluorimeter (Fluoroskan Ascent, Labsystems). Excitation and detection of emission was carried out from the bottom of the plate. Filters used for Fluo-4: excitation filter −485 nm, emission filter −538 nm. The whole measurement process was performed at 37° C. and was controlled by custom software. Inhibitory potency of the test compounds was assessed by measuring the reduction in the agonist-evoked [Ca^2+]i-elevation in the presence of different concentrations of the compounds. The agonists were LysDABK for CHO-B1, and bradykinin for CHO-B2 cells. Agonists were applied at an EC80 concentration, the EC80-values were derived from daily determined dose-response curves. Fluorescence data were expressed as ΔF/F (fluorescence change normalized to baseline). All treatments on a single plate were measured in multiple wells. Data from all wells with the same treatment were averaged and the average values were used for analysis. Inhibitory potency of a compound at a single concentration point was expressed as percent inhibition of the control agonist response. Sigmoidal concentration-inhibition curves were fitted to the data (derived from at least three independent experiments) and IC50-values were determined as the concentration that produces half of the maximal inhibition caused by the compound.

Assay [2] has as its target T2, human recombinant bradykinin1 receptors (Homo sapiens, UniProt P46663).
T2 construct: host or cells: CHO cells
T2 sequence (P46663 1-353): T1 sequence (P46663 1-353)
Kind of assay: Human recombinant bradykinin B1 receptor binding. To be noted: CHO cell membranes, [3H]-[Des-Arg10] Kallidin radioligand. On the procedure:
Receptor Binding Assays 1. Human Recombinant Bradykinin B1 Receptor Binding
Binding assays were carried out on human recombinant bradykinin1 receptors (expressed in CHO cells) according to the Euroscreen Technical Data Sheet (Cat. No.: ES-091). 20 μg protein/tube was incubated with [3,4-prolyl-3,4-^3H(N)]-[Des-Arg^10] Kallidin as radioligand. Non specific binding was determined in the presence of 10 μM Lys-des-Arg^9-Bradykinin. The final incubation volume was 250 μl. Samples were incubated for 15 min. at 25° C. then were rapidly vacuum filtered through GF/B filters presoaked for at least 1 h in 0.5% PEI. Radioactivity was determined by liquid scintillation spectroscopy.

What is called Ki is a measure of affinity in units of concentration, obtained from inhibition or displacement. `CC(=O)c1ccc2c(c1)C(CC(=O)NCCc1ccc(C3=NCCN3)cc1)N(S(=O)(=O)c1ccc(Cl)c(Cl)c1)c1ccccc1-2` (centres unmarked) [Example 19, 2-[8-Acetyl-5-(3,4-dichloro-benzenesulfonyl)-5,6-dihydro-phenanthridin-6-yl]-N-{2-[4-(4,5-dihydro-1H-imidazol-2-yl)-phenyl]-ethyl}-acetamide hydrochloride]: the IC50 in assay [1] was in the range of 100 to 500 nM. The inhibitory constant (Ki) in assay [2] is below 100 nM.

For `CCCN1C(=O)C(NC(=O)Nc2ccc(N3CCC(N4CCCCC4)CC3)cc2)N=C(c2ccc(C)cc2)c2ccccc21` (racemic) [Example 70004387, (±)-N-[4-(1,4′-bipiperidin)-1′-yl-phenyl]-N′-[2,3-dihydro-5-(4-methyl-phenyl)-2-oxo-1-propyl-1H-1,4-benzodiazepin-3-yl]-urea, reference compound], in assay [1], the IC50 was in the range of 100 to 500 nM. Besides, the Ki in assay [2] is below 100 nM.

`NCc1ccc(CC(NC(=O)CC(NS(=O)(=O)c2ccc3ccccc3c2)c2ccccc2)C(=O)N2CCCC2)cc1` (racemic) [Example 70003770, (±)-N-[1-(4-aminomethyl-benzyl)-2-oxo-2-pyrrolidin-1-yl-ethyl]-3-(naphthalene-2-sulfonylamino)-3-phenyl-propionamide, reference compound]: in assay [1], the IC50 is above 500 nM. Also, the inhibition constant (Ki) in assay [2] is above 500 nM.

On to `COc1cccc2c1-c1ccccc1N(S(=O)(=O)c1ccc(Cl)c(Cl)c1)C2CC(=O)NCCc1ccc(C2=NCCN2)cc1` (centres unmarked) [Example 17, 2-[5-(3,4-Dichloro-benzenesulfonyl)-10-methoxy-5,6-dihydro-phenanthridin-6-yl]-N-{2-[4-(4,5-dihydro-1H-imidazol-2-yl)-phenyl]-ethyl}-acetamide hydrochloride], for which, in assay [1], the IC50 was below 100 nM. In assay [2], the inhibition constant Ki is below 100 nM.

Source of the values: patent US8034827B2, “Phenanthridine derivatives as bradykinin antagonists” (Richter Gegeon Nyrt., priority 2005, dated 2011).
